One series addresses T1, mGluR5 (Rattus norvegicus, UniProt P31424).
T1 construct: tissue Charles River Laboratories; host or cells: rat brain cortex membranes (Sprague-Dawley)
Briefly: mGluR5 binding assay ([3H]-MPEP radioligand competition). Conditions: competition with 3 nM [3H]-MPEP, rat brain cortical membranes, 1 h at 4 °C; mean of at least three independent experiments in duplicate. The gist of the method:
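Rat cortical membranes (50 μg) were incubated 1 h at 4 °C with 3 nM [3H]-MPEP and compound (0.003 nM-30 μM, 8 points) in HEPES buffer pH 7.4 with Mg2+, Ca2+ and NaCl. 30 μM MPEP defined non-specific binding, and bound label was counted after filtration. IC50 came from non-linear regression, as the mean of ≥3 experiments run in duplicate.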

The text below walks through data of patent US8883826B2, “Alkynyl derivatives as modulators of metabotropic glutamate receptors” (Addex Pharma SA, priority 2004, dated 2014).

T1 sequence (P31424 21-1203): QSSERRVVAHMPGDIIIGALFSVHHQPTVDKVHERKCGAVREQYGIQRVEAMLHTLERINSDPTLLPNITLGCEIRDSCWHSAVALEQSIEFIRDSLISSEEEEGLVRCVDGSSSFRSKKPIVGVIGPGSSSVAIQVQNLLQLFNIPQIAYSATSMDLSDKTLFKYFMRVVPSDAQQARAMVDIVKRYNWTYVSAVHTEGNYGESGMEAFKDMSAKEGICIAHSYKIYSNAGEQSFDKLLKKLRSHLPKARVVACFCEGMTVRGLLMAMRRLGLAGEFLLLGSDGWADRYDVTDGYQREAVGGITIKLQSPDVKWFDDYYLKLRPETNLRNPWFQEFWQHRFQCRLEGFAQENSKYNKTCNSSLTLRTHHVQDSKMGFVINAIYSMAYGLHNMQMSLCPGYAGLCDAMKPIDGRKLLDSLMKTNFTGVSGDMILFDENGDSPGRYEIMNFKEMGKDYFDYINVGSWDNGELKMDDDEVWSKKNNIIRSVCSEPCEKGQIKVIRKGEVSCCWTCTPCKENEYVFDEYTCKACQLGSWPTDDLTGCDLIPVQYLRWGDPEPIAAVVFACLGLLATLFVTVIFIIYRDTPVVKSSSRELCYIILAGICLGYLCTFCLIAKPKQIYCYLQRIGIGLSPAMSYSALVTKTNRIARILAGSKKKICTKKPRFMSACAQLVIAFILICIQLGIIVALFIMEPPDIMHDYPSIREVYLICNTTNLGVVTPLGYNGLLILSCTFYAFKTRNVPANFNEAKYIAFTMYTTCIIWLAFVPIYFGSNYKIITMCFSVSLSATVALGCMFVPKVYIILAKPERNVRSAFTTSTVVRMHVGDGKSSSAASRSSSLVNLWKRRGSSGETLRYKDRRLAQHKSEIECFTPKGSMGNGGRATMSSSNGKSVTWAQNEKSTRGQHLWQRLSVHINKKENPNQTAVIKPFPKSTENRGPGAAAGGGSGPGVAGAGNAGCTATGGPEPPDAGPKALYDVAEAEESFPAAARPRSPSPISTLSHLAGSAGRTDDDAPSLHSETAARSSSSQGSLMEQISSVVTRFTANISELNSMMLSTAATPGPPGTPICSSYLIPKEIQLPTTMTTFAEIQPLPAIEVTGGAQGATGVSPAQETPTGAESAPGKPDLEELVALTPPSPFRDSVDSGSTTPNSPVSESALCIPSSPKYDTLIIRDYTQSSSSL

Turning to `C(#Cc1ccccn1)CCc1nc2ccccc2o1.Cl` [Example 8, 2-(4-(Pyridin-2-yl)but-3-ynyl)benzo[d]oxazole Hydrochloride], the melting point (commonly the temperature of the solid-liquid transition) is 143.5 to 145 °C. Besides, the IC50 – broadly, the concentration that inhibits the measured activity by half – on mGluR5 was under 0.05 µM.
In the case of `Cc1nc(C#CCCc2ccccc2)c[nH]1` [Example 11, 2-Methyl-4-(4-phenylbut-1-ynyl)-1H-imidazole], the melting point lay in the range of 124 to 126 °C.
As to `CN(C(=O)CCC#Cc1ccccn1)c1ccccc1` [Example 12, N-Methyl-N-phenyl-5-(pyridin-2-yl)pent-4-ynamide], the melting point is 68 to 71 °C. At mGluR5, the IC50 was under 10 µM.
`C(#Cc1ccccn1)CCn1nnc(-c2ccccc2)n1` [Example 32, 2-(4-(5-Phenyl-2H-tetrazol-2-yl)but-1-ynyl)pyridine] gave a melting point of 71 to 73 °C. In addition, the 50% inhibitory concentration (IC50) at mGluR5 was under 10 µM.
On to `O=C(CCC#Cc1ccccn1)Nc1ccc(F)cc1` [Example 34, N-(4-Fluorophenyl)-5-(pyridine-2-yl)pent-4-ynamide], for which the melting point was in the range of 189.9 to 190.2 °C. Moreover, the IC50 on mGluR5 is under 1 µM.
In the same order, the values of `C(#Cc1ccccn1)CCc1nc2ccccc2s1` [Example 35, 2-(4-(Pyridin-2-yl)but-3-ynyl)benzo[d]thiazole] are 98.5 to 99.4 °C and under 0.05 µM.
As for `Clc1ccc2nc(CCC#Cc3ccccn3)oc2c1` [Example 36, 6-Chloro-(2-(4-pyridin-2-yl)but-3-ynyl)benzo[d]oxazole], the melting point lay in the range of 101.5 to 102.2 °C. The same molecule yielded an IC50 on mGluR5 of under 10 µM.
`Fc1ccc2oc(CCC#Cc3ccccn3)nc2c1` [Example 37, 5-Fluoro-(2-(4-pyridin-2-yl)but-3-ynyl)benzo[d]oxazole] gave a melting point of 100.1 to 101 °C. This molecule also registered an IC50 on mGluR5 of under 10 µM.
On the same counts, the results for `Fc1ccc(C#CCCC#Cc2ccccn2)cc1` [Example 38, 2-(6-(4-Fluorophenyl)hexa-1,5-diynyl)pyridine] are 68 to 69 °C and under 10 µM.
`O=c1n(CCC#Cc2ccccn2)nc2ccccn12` [Example 39, 2-(4-(Pyridin-2-yl)but-3-ynyl)-[1,2,4]triazolo[4,3-a]pyridin-3(2H)-one] came in with a melting point of 95.5 to 96 °C.
As to `Clc1ccc(-c2noc(CCC#Cc3ccccn3)n2)cc1` [Example 47, 2-(4-(3-(4-Chlorophenyl)-1,2,4-oxadiazol-5-yl)but-1-ynyl)pyridine], the melting point fell in the range of 75 to 77 °C. The IC50 at mGluR5 was under 10 µM.
On the same counts, the results for `C(#Cc1ccccn1)CCc1nc(-c2ccc3ccccc3c2)no1` [Example 51, 2-(4-(3-(Naphthalen-2-yl)-1,2,4-oxadiazol-5-yl)but-1-ynyl)pyridine] are 76 to 78 °C and under 10 µM.
In the same order, the values of `Clc1ccc(-c2noc(CCC#Cc3ccccn3)n2)c(Cl)c1` [Example 57, 2-(4-(3-(2,4-Dichlorophenyl)-1,2,4-oxadiazol-5-yl)but-1-ynyl)pyridine] are 77 to 78 °C and under 10 µM.
Molecule `Cc1ccc(F)cc1-c1noc(CCC#Cc2ccccn2)n1` [Example 59, 2-(4-(3-(5-Fluoro-2-methylphenyl)-1,2,4-oxadiazol-5-yl)but-1-ynyl)pyridine] showed a melting point of 90 to 91 °C. For the same molecule, the IC50 at mGluR5 is under 10 µM.
In the same order, the values of `Cc1ccc(Cl)cc1-c1noc(CCC#Cc2ccccn2)n1` [Example 60, 2-(4-(3-(5-Chloro-2-methylphenyl)-1,2,4-oxadiazol-5-yl)but-1-ynyl)pyridine] are 66 to 68 °C and under 10 µM.
On the same counts, the results for `Fc1cc(F)c2oc(CCC#Cc3ccccn3)nc2c1` [Example 89, 5,7-Difluoro-2-(4-(pyridin-2-yl)but-3-ynyl)benzo[d]oxazole] are 93.5 to 94 °C and under 0.05 µM.
Consider `Fc1cccc2oc(CCC#Cc3ccccn3)nc12` [Example 90, 4-Fluoro-2-(4-(pyridin-2-yl)but-3-ynyl)benzo[d]oxazole], for which the melting point was in the range of 89 to 89.5 °C. The IC50 at mGluR5 was under 0.05 µM.
In the same order, the values of `N#Cc1cccc2nc(CCC#Cc3ccccn3)oc12` [Example 92, 2-(4-(Pyridin-2-yl)but-3-ynyl)benzo[d]oxazole-7-carbonitrile] are 126 to 126.5 °C and under 0.05 µM.
Molecule `Fc1ccc(Cl)c2oc(CCC#Cc3ccccn3)nc12` [Example 93, 7-Chloro-4-fluoro-2-(4-(pyridin-2-yl)but-3-ynyl)benzo[d]oxazole] came in with a melting point of 102 to 103 °C. The IC50 on mGluR5 is under 0.05 µM.
Molecule `O=c1n(CCC#Cc2cccc(CF)n2)nc2ccccn12` [Example 120, 2-(4-(6-(Fluoromethyl)pyridin-2-yl)but-3-ynyl)-[1,2,4]triazolo[4,3-a]pyridin-3(2H)-one] gave a melting point of 106 to 107 °C. The molecule also yielded a concentration for half-maximal inhibition (IC50) on mGluR5 of under 10 µM.
On the same counts, the results for `FCc1cccc(C#CCCc2ccc3ccccc3n2)n1` [Example 126, 2-(4-(6-(Fluoromethyl)pyridin-2-yl)but-3-ynyl)quinoline] are 70.2 to 74.3 °C and under 0.05 µM.
As for `FCc1cccc(C#CCCc2cnc3ccccc3n2)n1` [Example 129, 2-(4-(6-(Fluoromethyl)pyridin-2-yl)but-3-ynyl)quinoxaline], the melting point is 136 °C (dec.). Moreover, at mGluR5, the IC50 is under 0.05 µM.
On the same counts, the results for `Cl.FCc1cccc(C#CCCn2nc3cc(F)cc(F)c3n2)n1` [Example 131, 4,6-Difluoro-2-(4-(6-(fluoromethyl)pyridin-2-yl)but-3-ynyl)-2H-benzo[d][1,2,3]triazole hydrochloride] are 128 to 130 °C and under 0.05 µM.
On the same counts, the results for `Cl.FCc1cccc(C#CCCn2nc3ccc(F)c(F)c3n2)n1` [Example 132, 4,5-Difluoro-2-(4-(6-(fluoromethyl)pyridin-2-yl)but-3-ynyl)-2H-benzo[d][1,2,3]triazole hydrochloride] are 157 to 159 °C and under 0.05 µM.
On the same counts, the results for `FC(F)c1cccc(C#CCCn2nc3ccccc3n2)n1` [Example 134, 2-(4-(6-(Difluoromethyl)pyridin-2-yl)but-3-ynyl)-2H-benzo[d][1,2,3]triazole] are 101.8 to 102.9 °C and under 10 µM.
`FCc1cccc(C#CCCc2cnc3cc(F)c(F)cc3n2)n1` [Example 148, 6,7-Difluoro-2-(4-(6-(fluoromethyl)pyridin-2-yl)but-3-ynyl)quinoxaline] returned a melting point of 134.9 to 138.5 °C. Besides, the IC50 at mGluR5 is under 10 µM.
On mGluR5, `Cc1noc(C)c1S(=O)(=O)N(C)CCC#Cc1ccccn1` [Example 219, N,3,5-Trimethyl-N-(4-(pyridin-2-yl)but-3-ynyl)isoxazole-4-sulfonamide] yielded an IC50 of under 10 µM.
On the same count and under the same terms, under `C(#Cc1ccccn1)CCNc1nc2ccccc2s1` [Example 220, N-(4-(Pyridin-2-yl)but-3-ynyl)benzo[d]thiazol-2-amine] stands under 10 µM.
Molecule `Cn1c(=O)n(CCCC#Cc2ccccn2)c2ccccc21` [Example 221, 1-Methyl-3-(5-(pyridin-2-yl)pent-4-ynyl)-1H-benzo[d]imidazol-2(3H)-one] showed an IC50 at mGluR5 of under 10 µM.
The same measure, in the same setting: under `FCc1cccc(C#CCCc2cn3cccc(Br)c3n2)n1` [Example 225, 8-Bromo-2-(4-(6-(fluoromethyl)pyridin-2-yl)but-3-ynyl)-imidazo[1,2-a]pyridine] stands under 0.05 µM; under `FCc1cccc(C#CCCc2cn3cccc(-c4ccccc4)c3n2)n1` [Example 227, 2-(4-(6-(Fluoromethyl)pyridin-2-yl)but-3-ynyl)-8-phenyl-imidazo[1,2-a]pyridine], under 10 µM.
Take `Cc1csc(C#CCCn2nc3ccccc3n2)n1` [Example 229, 2-(4-(4-Methylthiazol-2-yl)but-3-ynyl)-2H-benzo[d][1,2,3]triazole]: the melting point was in the range of 78 to 80 °C.
Regarding `O=C(OCCC#Cc1ccccn1)c1ccccc1Cl` [Example 235, 4-(Pyridin-2-yl)but-3-ynyl 2-chlorobenzoate], at mGluR5, the IC50 is under 0.05 µM.
Consider `O=C(OCCC#Cc1ccccn1)c1cccc(Cl)c1` [Example 236, 4-(Pyridin-2-yl)but-3-ynyl 3-chlorobenzoate], for which the IC50 at mGluR5 is under 0.05 µM.
Same read-out and setting: under `O=c1c2ccccc2cnn1CCCCC#Cc1ccccn1` [Example 243, 2-(6-(Pyridin-2-yl)hex-5-ynyl)phthalazin-1(2H)-one] stands under 10 µM.
The same measure, in the same setting: the result for `O=C(NCCC#Cc1cccc(CF)n1)c1ccccc1Cl` [Example 247, 2-Chloro-N-(4-(6-(fluoromethyl)pyridin-2-yl)but-3-ynyl)benzamide] reads under 10 µM.
Regarding `FCc1cccc(C#CCCn2ncc(-c3ccc(F)cc3)n2)n1` [Example 250, 2-(Fluoromethyl)-6-(4-(4-(4-fluorophenyl)-2H-1,2,3-triazol-2-yl)but-1-ynyl)pyridine], the melting point is 84 to 86 °C.
The same measure, in the same setting: under `Cc1cc(F)ccc1NC(=O)CCC#Cc1cccc(CF)n1` [Example 252, 5-(6-(Fluoromethyl)pyridin-2-yl)-N-(4-fluoro-2-methyl-phenyl)pent-4-ynamide] stands 122 to 125 °C; under `FCc1cccc(C#CCCn2cc(-c3ccc(F)cc3)nn2)n1` [Example 254, 2-(Fluoromethyl)-6-(4-(4-(4-fluorophenyl)-1H-1,2,3-triazol-1-yl)but-1-ynyl)pyridine], 100 to 103 °C; under `Cc1c(-c2ccc(F)cc2)nnn1CCC#Cc1ccccn1` [Example 258, 2-(4-(4-(4-Fluorophenyl)-5-methyl-1H-1,2,3-triazol-1-yl)but-1-ynyl)pyridine], 130 to 131 °C.
